Source: patent publication US20250221966A1, “RXFP1 AGONISTS” (BRISTOL-MYERS SQUIBB COMPANY, priority 2021, published 2025)

target: T1, human RXFP1 (Homo sapiens, UniProt Q9HBX9); assay: RXFP1 cAMP assay (hRXFP1 HEK293 cAMP assay, HTRF); assay type: cell-based; conditions: HEK293 cells stably expressing human RXFP1, 30 min at room temperature, read-out: cAMP hRXFP1 HEK293 Assay EC50
T1 construct: expressed in transfected cells
T1 sequence (Q9HBX9 1-757): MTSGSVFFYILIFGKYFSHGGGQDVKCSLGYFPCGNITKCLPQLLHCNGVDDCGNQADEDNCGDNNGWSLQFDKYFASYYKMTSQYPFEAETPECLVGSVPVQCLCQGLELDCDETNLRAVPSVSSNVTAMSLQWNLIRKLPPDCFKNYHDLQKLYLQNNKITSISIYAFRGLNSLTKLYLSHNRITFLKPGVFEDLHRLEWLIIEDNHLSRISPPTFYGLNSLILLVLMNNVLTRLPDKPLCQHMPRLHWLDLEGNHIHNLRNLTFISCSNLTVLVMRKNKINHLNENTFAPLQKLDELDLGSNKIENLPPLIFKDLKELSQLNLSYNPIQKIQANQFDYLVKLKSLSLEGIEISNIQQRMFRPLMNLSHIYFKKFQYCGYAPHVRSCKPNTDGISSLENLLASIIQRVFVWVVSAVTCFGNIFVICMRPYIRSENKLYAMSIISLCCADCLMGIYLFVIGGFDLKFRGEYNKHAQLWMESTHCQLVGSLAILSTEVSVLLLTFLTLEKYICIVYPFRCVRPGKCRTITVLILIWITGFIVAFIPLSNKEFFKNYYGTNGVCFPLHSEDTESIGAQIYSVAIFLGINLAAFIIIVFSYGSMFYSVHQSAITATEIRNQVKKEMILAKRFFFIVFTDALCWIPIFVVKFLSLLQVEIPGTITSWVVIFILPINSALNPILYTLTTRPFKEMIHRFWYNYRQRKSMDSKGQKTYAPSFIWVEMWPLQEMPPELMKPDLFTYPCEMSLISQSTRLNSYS
How it was run: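 Intracellular cAMP was read by HTRF, with potency fitted to a 4-parameter logistic curve. Compound exposure (0.010 nM–50 μM final, 2% DMSO) lasted 30 min at room temperature. Cells were hRXFP1-HEK293 at 1500 per well in IBMX-containing (0.5 mM) HEPES-buffered HBSS.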

| Structure (SMILES) | EC50 |
| --- | --- |
| COc1ccc(-c2cc(C(OC(=O)NC3CCC3)C(F)(F)F)ccc2F)cc1C(=O)N[C@@H]1C2CCC(/C2=C/C2CC2)[C@@H]1C(=O)Nc1ccc(F)c(C(F)(F)F)c1 (stereo partly shown) [compound 221] | 26 nM |
| COc1ccc(C2=NOC3CC(CO)CC23)cc1C(=O)N[C@H]1[C@@H](C(=O)NC2(C)CCCC2)[C@H]2CC[C@@H]1/C2=C\C1CC1 (stereo partly shown) [compound 466] | 3.9 nM |
| COc1cc(F)c(F)cc1C(=O)N[C@@H]1C2CCC(/C2=C/C=C/CCCc2ccccc2)[C@@H]1C(=O)Nc1ccc(F)c(C(F)(F)F)c1 (stereo partly shown) [compound 37] | 15 nM |
| COc1ccc(C2=NOC3COCC23)cc1C(=O)N[C@H]1[C@@H](C(=O)NCCc2ccccc2C)[C@H]2CC[C@@H]1/C2=C\C1CC1 (stereo partly shown) [compound 520] | 19.3 nM |
| COc1ccc(C2=NOC3(CO)CCC23CO)cc1C(=O)N[C@H]1[C@@H](C(=O)Nc2ccc(F)c(C(F)(F)F)c2)[C@H]2CC[C@@H]1/C2=C\C1CC1 (single isomer, unassigned) [Example 461] | 2.6 nM |
| COc1ccc(C2=NOC3CC(C(C)(C)O)CC23)cc1C(=O)N[C@H]1[C@@H](C(=O)Nc2ccc(F)c(C(F)(F)F)c2)[C@H]2CC[C@@H]1/C2=C\C1CC1 (single isomer, unassigned) [compound 579] | 71.6 nM |
| COc1ccc(-c2cccnc2F)cc1C(=O)N[C@H]1[C@@H](C(=O)Nc2ccc(F)c(C(F)(F)F)c2)[C@H]2CC[C@@H]1C2=C(C)C [compound 102] | 590 nM |
| COc1ccc(C2=NOC3COCC23)cc1C(=O)N[C@H]1[C@@H](C(=O)N[C@H](C)C2(C)CC2)[C@H]2CC[C@@H]1/C2=C\C1CC1 (stereo partly shown) [Example 447] | 0.8 nM |
| COc1ccc(C2CC3CNS(=O)(=O)C32)cc1C(=O)N[C@H]1[C@@H](C(=O)Nc2ccc(F)c(C(F)(F)F)c2)[C@H]2CC[C@@H]1/C2=C\C1CC1 (single isomer, unassigned) [compound 733] | 6.3 nM |
| COc1ccc(C2=NOC(CCO)C2)cc1C(=O)N[C@@H]1C2CCC(/C2=C/C2CC2)[C@@H]1C(=O)Nc1ccc(F)c(C(F)(F)F)c1 (stereo partly shown) [compound 399] | 42 nM |
| COc1ccc(C2=NOC3COCC23)cc1C(=O)N[C@H]1[C@@H](C(=O)NC(C)(C)C#N)[C@H]2CC[C@@H]1/C2=C\C1CC1 (stereo partly shown) [compound 633] | 190 nM |
| COc1ccc(-c2cc(C(=O)O)ccc2F)cc1C(=O)N[C@@H]1C2CCC(/C2=C/C2CC2)[C@@H]1C(=O)NC1CC(F)(F)C1 (stereo partly shown) [compound 304] | 1710 nM |
| CCC/C=C1\[C@H]2CC[C@@H]1[C@H](C(=O)Nc1ccc(F)c(C(F)(F)F)c1)[C@@H]2NC(=O)c1cc(C2=NOC3CC(CO)CC23)cc(F)c1OC (stereo partly shown) [compound 793] | 2.2 nM |
| COc1ccc(-c2cc(C(NC(=O)C3CCOCC3)C(=O)O)ccc2F)cc1C(=O)N[C@H]1[C@@H](C(=O)N[C@H](C)C2(C)CC2(F)F)[C@H]2CC[C@@H]1/C2=C\C1CC(F)(F)C1 (stereo partly shown) [compound 971] | 2.8 nM |
| COc1ccc(N2CCCCS2(=O)=O)cc1C(=O)N[C@@H]1C2CCC(/C2=C/C2CC2)[C@@H]1C(=O)Nc1ccc(F)c(C(F)(F)F)c1 (stereo partly shown) [compound 373] | 9 nM |
| COc1cc(F)c(F)cc1C(=O)N[C@@H]1C2CCC(/C2=C/c2cccc(Cl)c2)[C@@H]1C(=O)Nc1ccc(F)c(C(F)(F)F)c1 (stereo partly shown) [compound 17] | 120 nM |
| COc1ccc(-c2cc([C@H](OC(=O)NC3CC3)C(F)(F)F)ccc2F)cc1C(=O)N[C@H]1[C@@H](C(=O)Nc2ccc(F)c(C(F)(F)F)c2)[C@H]2CC[C@@H]1/C2=C\C(C)C [compound 930] | 1.1 nM |
| COc1ccc(-c2cc(C(=O)NC(C)C)ccc2F)cc1C(=O)N[C@@H]1C2CCC(C2=C(C)C)[C@@H]1C(=O)Nc1ccc(F)c(C(F)(F)F)c1 (stereo partly shown) [compound 153] | 140 nM |

| Structure (SMILES) | EC50 |
| --- | --- |
| COc1ccc(C2CCCN2CC(C)(C)O)cc1C(=O)N[C@@H]1C2CCC(C2=CC2CC2)[C@@H]1C(=O)Nc1ccc(F)c(C(F)(F)F)c1 (stereo partly shown) [compound 698] | 1010 nM |
| COc1cc(F)c(F)cc1C(=O)N[C@@H]1C2CCC(/C2=C/C2=CCOC2)[C@@H]1C(=O)Nc1ccc(F)c(C(F)(F)F)c1 (stereo partly shown) [compound 58] | 1100 nM |
| COc1ccc(C2CCN(CC(C)(C)O)C2)cc1C(=O)N[C@@H]1C2CCC(C2=CC2CC2)[C@@H]1C(=O)Nc1ccc(F)c(C(F)(F)F)c1 (stereo partly shown) [compound 568] | 59.4 nM |
| COC(=O)N1CCN(c2ccc(OC)c(C(=O)NC3C4CCC(C4=Cc4ccccc4)C3C(=O)Nc3ccc(F)c(C(F)(F)F)c3)c2)CC1 (stereo not shown) [Example 125] | 240 nM |
| COc1ccc(-c2cc(S(C)(=O)=O)ccc2F)cc1C(=O)N[C@H]1[C@@H](C(=O)Nc2ccc(F)c(C(F)(F)F)c2)[C@H]2CC[C@@H]1/C2=C\C1CC1 [compound 899] | 3 nM |
| COc1ccc(C2=NOC3COCC23)cc1C(=O)N[C@H]1[C@@H](C(=O)NCC2C(C)(C)C2(C)C)[C@H]2CC[C@@H]1/C2=C\C1CC1 (stereo partly shown) [compound 586] | 79.1 nM |
| COc1cc(F)c(F)cc1C(=O)N[C@@H]1C2CCC(/C2=C/c2cncnc2)[C@@H]1C(=O)Nc1ccc(F)c(C(F)(F)F)c1 (stereo partly shown) [compound 63] | 510 nM |
| COc1ccc(-c2cc(C(=O)NCC(=O)O)ccc2F)cc1C(=O)N[C@@H]1C2CCC(C2=C(C)C)[C@@H]1C(=O)Nc1ccc(F)c(C(F)(F)F)c1 (stereo partly shown) [compound 193] | 300 nM |
| COc1ccccc1C(=O)N[C@H]1[C@@H](C(=O)Nc2ccc(F)c(C(F)(F)F)c2)[C@H]2CC[C@@H]1/C2=C\c1ccccc1 [compound 90] | 330 nM |
| COc1ccc(C2CC3CN(C(=O)OC(C)(C)C)CC32)cc1C(=O)N[C@H]1[C@@H](C(=O)Nc2ccc(F)c(C(F)(F)F)c2)[C@H]2CC[C@@H]1/C2=C\C1CC1 (single isomer, unassigned) [compound 731] | 10 nM |
| COc1c(F)cc(C2=NO[C@@H]3C[C@H](CO)CN23)cc1C(=O)N[C@H]1[C@@H](C(=O)Nc2ccc(F)c(C(F)(F)F)c2)[C@H]2CC[C@@H]1/C2=C\C1CC1 [compound 852] | 3.1 nM |
| COc1ccc(-c2ccn(CC(=O)O)n2)cc1C(=O)N[C@@H]1C2CCC(/C2=C/C(F)(F)F)[C@@H]1C(=O)Nc1ccc(F)c(C(F)(F)F)c1 (stereo partly shown) [compound 342] | 390 nM |
| COc1ccc(C2=NOC3(CCOCC3)C2)cc1C(=O)N[C@@H]1C2CCC(/C2=C/C2CC2)[C@@H]1C(=O)Nc1ccc(F)c(C(F)(F)F)c1 (stereo partly shown) [compound 402] | 70 nM |
| COc1ccc(C2=NOC3CC(C)(O)CC23)cc1C(=O)N[C@H]1[C@@H](C(=O)Nc2ccc(F)c(C(F)(F)F)c2)[C@H]2CC[C@@H]1/C2=C\C1CC1 (stereo partly shown) [compound 858] | 1.3 nM |
| COc1cc(F)c(F)cc1C(=O)N[C@@H]1C2CCC(/C2=C/C(=O)Nc2ccccc2)[C@@H]1C(=O)Nc1ccc(F)c(C(F)(F)F)c1 (stereo partly shown) [Example 34] | 4600 nM |
| COc1ccc(C2=NOC3CC(C(C)O)CC23)cc1C(=O)N[C@H]1[C@@H](C(=O)Nc2ccc(F)c(C(F)(F)F)c2)[C@H]2CC[C@@H]1/C2=C\C1CC1 (stereo partly shown) [compound 843] | 0.9 nM |
| CCOC(=O)c1cc2cc(-c3ccc(OC)c(C(=O)N[C@@H]4C5CCC(/C5=C/C(F)(F)F)[C@@H]4C(=O)Nc4ccc(F)c(C(F)(F)F)c4)c3)ccc2[nH]1 (stereo partly shown) [compound 297] | 73 nM |
| COc1ccc(-c2cc(C(O)C(=O)O)ccc2F)cc1C(=O)NC1C2CCC(/C2=C/C2CCC2)C1C(=O)Nc1ccc(F)c(C(F)(F)F)c1 (stereo not shown) [compound 356] | 5 nM |

same assay, conditions: cAMP hRXFP1 HEK293 Assay EC50, HEK293 cells stably expressing human RXFP1, 30 min at room temperature

| Structure (SMILES) | EC50 |
| --- | --- |
| COc1ccc(-c2cc(C(=O)O)ccc2F)cc1C(=O)N[C@@H]1C2CCC(/C2=C/C2CC2)[C@@H]1C(=O)Nc1ccc(C#N)c(C(F)(F)F)c1 (stereo partly shown) [compound 270] | 25 nM |
